From the NIST ThermoML archive (doi:10.1007/s10765-016-2109-2)

Legend:
[1] = molar heat capacity at saturation pressure; conditions: Liquid, Vacuum adiabatic calorimetry
[2] = Liquid, isochoric method

CCCCCC[n+]1ccn(C)c1.O=S(=O)([N-]S(=O)(=O)C(F)(F)F)C(F)(F)F
Conditions	mass density, [2] [kg/m3]	molar heat capacity, [1] [J/K/mol]
288.72 K	–	599.09
288.87 K	–	602.23
289.04 K	–	592.83
289.17 K	–	597.31
289.3 K	–	604.91
289.44 K	–	590.59
289.57 K	–	596.41
289.7 K	–	599.99
289.83 K	–	601.78
297.45 K	–	599.54
297.76 K	–	608.04
297.89 K	–	604.46
298.02 K	–	598.65
298.15 K	–	596.41
298.28 K	–	606.25
298.41 K	–	601.78
298.53 K	–	599.99
298.66 K	–	603.57
301.64 K	–	606.7
301.75 K	–	608.94
301.88 K	–	612.52
302.01 K	–	606.7
302.13 K	–	613.41
302.26 K	–	605.81
304.3 K	–	608.49
304.69 K	–	603.12
304.82 K	–	606.7
304.95 K	–	612.52
305.08 K	–	604.46
305.2 K	–	610.73
305.33 K	–	607.6
305.46 K	–	613.41
305.59 K	–	609.39
314.15 K	–	619.68
314.57 K	–	615.2
314.69 K	–	607.6
314.82 K	–	616.99
314.94 K	–	611.62
315.07 K	–	612.52
315.2 K	–	618.33
315.32 K	–	614.75
315.45 K	–	608.94
320.89 K	–	620.12
321.17 K	–	622.81
321.3 K	–	614.75
321.42 K	–	621.02
321.55 K	–	613.41
321.67 K	–	616.99
321.79 K	–	616.1
321.92 K	–	619.23
322.04 K	–	622.36
322.16 K	–	621.02
322.29 K	–	618.33
322.41 K	–	623.7
323.89 K	–	624.15
324.15 K	–	620.57
324.28 K	–	625.49
324.4 K	–	627.73
324.52 K	–	629.07
324.65 K	–	621.47
324.77 K	–	622.81
324.89 K	–	617.89
325.02 K	–	621.02
325.14 K	–	625.05
325.24 K	–	622.36
325.26 K	1344.14	623.7
333.63 K	–	634.44
333.82 K	–	633.99
333.94 K	–	626.83
334.06 K	–	631.76
334.18 K	–	629.07
334.3 K	–	632.65
334.42 K	–	636.68
334.54 K	–	633.1
334.66 K	–	627.28
334.79 K	–	631.31
334.91 K	–	629.97
339.73 K	–	638.92
339.83 K	–	637.13
339.95 K	–	634.89
340.03 K	–	643.39
340.15 K	–	635.78
340.27 K	–	640.7
340.39 K	–	642.05
340.51 K	–	638.47
344.34 K	–	641.6
344.46 K	–	645.63
344.58 K	–	642.49
344.7 K	–	644.73
344.82 K	–	639.36
344.93 K	–	648.31
345.05 K	–	647.42
345.17 K	–	645.18
345.29 K	–	638.47
345.41 K	–	643.84
348.64 K	–	645.18
348.76 K	–	643.84
348.88 K	–	648.31
348.99 K	–	646.97
349.11 K	–	649.65
349.23 K	–	648.76
349.35 K	–	644.73
349.47 K	–	647.42
349.58 K	–	643.39
349.65 K	–	648.31
349.7 K	–	645.63
349.82 K	–	643.39
349.94 K	–	645.63
350.05 K	–	644.73
350.17 K	–	646.97
350.29 K	–	647.86
350.36 K	1323.92	647.42
